From the supplement of paper PMC10307832

Columns and labels:
Experiment in all cases: relative viability (nuclei count vs DMSO), 5 days (fraction); higher = more cells survive
[1] = compound: C1=CC2=NC=CN=C2C=C1/C=C/3\C(=O)NC(=O)S3 + COc1cc2c(Oc3ccc(NC(=O)C4(C(=O)Nc5ccc(F)cc5)CC4)cc3F)ccnc2cc1OCCCN1CCOCC1 [Foretinib] (partner 0.25 µM)
Method in brief: (§1)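 Relative viability is defined as nuclei in treated wells over nuclei in vehicle wells. Duplicate plates were run and medians reported. Lung cancer cell lines in 1536-well plates were dosed by pin tool one day after seeding, with one drug or with a fixed anchor-drug dose plus five library-drug doses (not always all listed) in √10 steps, and nuclei were counted after 5 days.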

[2] = compound: CCN1CCN(c2ccc(Nc3cc(N(C)C(=O)Nc4c(Cl)c(OC)cc(OC)c4Cl)ncn3)cc2)CC1 [BGJ398] + CC1(C)CCC(c2ccc(Cl)cc2)=C(CN2CCN(c3ccc(C(=O)NS(=O)(=O)c4ccc(N[C@H](CCN5CCOCC5)CSc5ccccc5)c(S(=O)(=O)C(F)(F)F)c4)cc3)CC2)C1 [Navitoclax] (partner 0.5 µM)
Method in brief: as §1

[3] = compound: C1=CC2=NC=CN=C2C=C1/C=C/3\C(=O)NC(=O)S3 + Nc1ncn([C@H]2C[C@H](O)[C@@H](CO)O2)c(=O)n1 [Decitabine] (partner 2 µM)
Method in brief: as §1

[4] = compound: CCN1CCN(c2ccc(Nc3cc(N(C)C(=O)Nc4c(Cl)c(OC)cc(OC)c4Cl)ncn3)cc2)CC1 [BGJ398] + Nc1ncn([C@H]2C[C@H](O)[C@@H](CO)O2)c(=O)n1 [Decitabine] (partner 2 µM)
Method in brief: as §1

Cell Line | relative viability ([1]; first compound 0.02 µM) | relative viability ([1]; first compound 0.06325 µM) | relative viability ([1]; first compound 0.2 µM) | relative viability ([1]; first compound 0.6325 µM) | relative viability ([1]; first compound 2 µM) | relative viability ([2]; first compound 0.01 µM) | relative viability ([2]; first compound 0.03162 µM) | relative viability ([2]; first compound 0.1 µM) | relative viability ([2]; first compound 0.3162 µM) | relative viability ([2]; first compound 1 µM) | relative viability ([3]; first compound 0.02 µM) | relative viability ([3]; first compound 0.06325 µM) | relative viability ([3]; first compound 0.2 µM) | relative viability ([3]; first compound 0.6325 µM) | relative viability ([3]; first compound 2 µM) | relative viability ([4]; first compound 0.01 µM) | relative viability ([4]; first compound 0.03162 µM) | relative viability ([4]; first compound 0.1 µM) | relative viability ([4]; first compound 0.3162 µM) | relative viability ([4]; first compound 1 µM)
LOU-NH91 | 0.917 | 0.965 | 0.964 | 0.923 | 0.855 | 0.685 | 0.402 | 0.668 | 0.427 | 0.701 | 0.797 | 0.849 | 0.83 | 0.782 | 0.756 | 0.837 | 0.676 | 0.813 | 0.649 | 0.821
LU99A | 0.727 | 0.743 | 0.792 | 0.822 | 0.614 | 0.769 | 0.755 | 0.696 | 0.724 | 0.512 | 0.932 | 0.828 | 0.884 | 0.751 | 0.725 | 0.776 | 0.763 | 0.735 | 0.756 | 0.68
LXF-289 | 0.925 | 0.92 | 0.953 | 0.982 | 0.908 | 0.933 | 0.905 | 0.892 | 0.873 | 0.831 | 0.357 | 0.374 | 0.334 | 0.379 | 0.389 | 0.351 | 0.415 | 0.332 | 0.325 | 0.38
NCI-H23 | 1.12 | 0.976 | 1.02 | 0.902 | 0.856 | 0.874 | 0.765 | 0.848 | 0.896 | 0.865 | 0.329 | 0.357 | 0.322 | 0.286 | 0.3 | 0.303 | 0.375 | 0.279 | 0.271 | 0.325
NCI-H322M | 0.969 | 0.918 | 0.932 | 0.906 | 0.669 | 1.23 | 1.26 | 1.05 | 1.2 | 1.31 | 0.693 | 0.776 | 0.798 | 0.665 | 0.692 | 0.755 | 0.723 | 0.771 | 0.602 | 0.833
NCI-H441 | 0.925 | 1.09 | 1.06 | 0.925 | 0.668 | 0.577 | 0.795 | 0.501 | 0.604 | 0.722 | 0.246 | 0.284 | 0.251 | 0.23 | 0.287 |  | 0.26 | 0.275 | 0.273 | 0.224
NCI-H460 | 0.936 | 0.833 | 1.03 | 0.953 | 1 | 1.01 | 1.11 | 1.4 | 1.12 | 1.33 | 0.524 | 0.389 | 0.515 | 0.459 | 0.534 | 0.418 | 0.515 | 0.592 | 0.53 | 0.438
NCI-H520 | 0.71 | 0.719 | 0.846 | 0.674 | 0.648 | 1.11 | 1.04 | 0.833 | 0.633 | 0.547 | 0.481 | 0.545 | 0.482 | 0.436 | 0.562 | 0.538 | 0.436 | 0.397 | 0.242 | 0.295
